# Test results published in patent US10183039B2, “Methods for the production of collagen IV” (Vanderbilt University, priority 2013, dated 2019).
# Tests used:
# peroxidasin = target: T1, peroxidasin (Mus musculus, UniProt Q3UQ28); experiment: In vitro basement membrane (uncrosslinked PFHR-9 matrix) reaction with halides and H2O2; assay type: biochemical; settings: for S═N bond formation in isolated matrix: 10 mM phosphate pH 7.4, 100 mM KF, 1 mM H2O2, 1 h at 37° C.
# T1 construct: Cultured murine PFHR9 cells synthesize collagen IV networks that contain sulfilimine crosslinks due to the activity of PXDN; endogenous in cells; host or cells: PFHR-9 cells (isolated matrix from KI-treated culture)
# T1 sequence (Q3UQ28 24-1475): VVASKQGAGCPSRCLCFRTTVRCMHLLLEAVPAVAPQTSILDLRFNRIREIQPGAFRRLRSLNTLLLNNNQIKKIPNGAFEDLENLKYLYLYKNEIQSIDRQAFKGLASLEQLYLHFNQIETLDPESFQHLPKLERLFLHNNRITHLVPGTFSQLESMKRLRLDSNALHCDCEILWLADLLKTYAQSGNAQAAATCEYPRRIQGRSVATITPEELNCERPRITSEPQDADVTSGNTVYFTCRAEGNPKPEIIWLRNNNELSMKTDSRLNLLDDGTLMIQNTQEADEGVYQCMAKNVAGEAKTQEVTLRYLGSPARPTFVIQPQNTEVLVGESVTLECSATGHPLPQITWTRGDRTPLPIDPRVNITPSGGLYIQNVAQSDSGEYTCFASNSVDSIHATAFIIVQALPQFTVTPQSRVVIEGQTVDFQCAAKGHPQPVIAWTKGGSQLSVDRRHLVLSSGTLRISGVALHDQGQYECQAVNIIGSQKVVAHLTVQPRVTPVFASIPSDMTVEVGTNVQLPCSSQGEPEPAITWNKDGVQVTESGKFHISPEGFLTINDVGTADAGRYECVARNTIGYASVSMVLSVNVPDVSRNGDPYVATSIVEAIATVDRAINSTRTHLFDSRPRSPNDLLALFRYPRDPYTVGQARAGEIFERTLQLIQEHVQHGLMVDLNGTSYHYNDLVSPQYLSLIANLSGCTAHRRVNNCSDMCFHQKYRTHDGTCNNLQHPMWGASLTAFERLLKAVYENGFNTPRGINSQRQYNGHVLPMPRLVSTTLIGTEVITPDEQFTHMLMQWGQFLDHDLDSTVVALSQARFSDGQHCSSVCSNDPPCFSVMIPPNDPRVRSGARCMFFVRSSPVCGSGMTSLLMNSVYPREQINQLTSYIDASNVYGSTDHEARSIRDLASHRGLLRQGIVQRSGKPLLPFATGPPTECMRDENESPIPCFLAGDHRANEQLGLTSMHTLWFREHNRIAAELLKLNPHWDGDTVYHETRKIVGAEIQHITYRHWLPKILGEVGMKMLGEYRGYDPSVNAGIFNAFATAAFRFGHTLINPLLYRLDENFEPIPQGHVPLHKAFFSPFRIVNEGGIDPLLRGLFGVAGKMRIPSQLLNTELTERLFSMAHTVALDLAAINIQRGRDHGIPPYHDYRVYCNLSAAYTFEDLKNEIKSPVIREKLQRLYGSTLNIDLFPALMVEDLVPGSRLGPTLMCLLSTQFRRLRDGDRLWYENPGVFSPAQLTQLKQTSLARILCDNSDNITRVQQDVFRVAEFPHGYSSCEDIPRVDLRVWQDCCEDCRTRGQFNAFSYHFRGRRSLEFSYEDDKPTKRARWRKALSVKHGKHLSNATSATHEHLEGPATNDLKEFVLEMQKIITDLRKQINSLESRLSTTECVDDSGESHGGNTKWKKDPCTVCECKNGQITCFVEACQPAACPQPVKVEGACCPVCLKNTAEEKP
# Description: (FIG. 8A) Matrix pellets isolated from KI-treated PFHR9 cell culture were extensively washed into 10 mM phosphate buffer (pH 7.4) supplemented with 100 mM KF to maintain ionic strength. Potassium salts of Cl— or Br— were added in indicated amounts. 1 hr reactions at 37° C. were initiated by addition of H2O2 to 1 mM and stopped by freezing at −20° C. Coomassie blue-stained gels after collagenase digestion of the samples and SDS-PAGE (FIG. 8B) Schematic of Br-Free chloride salt purification apparatus and setup. […] Reagent KCl was commercially obtained and unaltered prior to analysis. 100 mM solutions were made with 18MΩ deionized water. (FIG. 8C) Coomassie blue stained gel of collagenase digested PFHR-9 matrix reaction assay. Reaction buffered contained 10 mM phosphate buffer (pH 7.4), 100 mM Br-Free or Commercially obtained reagent grade KCl, as well as 1 mM H2O2 and 200 μM PHG where appropriate. (FIG. 8D) SDS-PAGE and coomassie blue stain of hPXDN (27.25 nM) and NC1 domain (1.3 μM) reaction and subsequent densiometric quantitation of S═N bond formation stiochiometry in response to NaBr addition. hPXDN and PFHR-9 NC1 domain were prepared and purified as described (5), except with all buffers for all purification steps (dialysis, chromatography, gradient ultracentrifugation) made with Br-Free chloride salts. Reactions were run for 10 minutes at 37° C. with 10 μM H2O2 as the terminal oxidant. Dose-response curve run in the presence of 1× Br-Free PBS. Reactions were quenched with 0.2 mg/ml Catalase, 20 mM Methionine, and 1 mM PHG. EC50 value±95% C.I. from two independent experiments with each data point plotted and fit.
# Uncrosslinked PFHR9 matrix was extensively washed into 10 mM phosphate buffer (pH 7.4) that was supplemented with 100 mM KF to maintain ionic strength. One hour reactions at 37° C. were initiated by addition of H2O2 to 1 mM and stopped by freezing at −20° C. […] Samples were digested with collagenase at 37° C. overnight and visualized by SDS-PAGE using 12% gels under non-reducing conditions with Coomassie staining.
# PFHR-9 cells treated with potassium iodide (1-10 mM) to eliminate NC1 hexamer crosslinks were used for basement membrane isolation. To test halide dependency, the inventors established halide-free conditions by washing extensively (at least five times) with 10 mM sodium phosphate pH 7.4. To try to extract or inactivate endogenous basement membrane peroxidase activity, the inventors extracted the matrix preparation twice with 2M guanidine-Cl, 50 mM Tris-Cl pH 7.5 and 10 mM EDTA-Na pH 8 followed by extensive washing with 1×PBS. Basement membrane was resuspended in the desired buffer with or without cofactors and inhibitors to examine in vitro NC1 crosslinking under various conditions. Basement membranes were collagenase solubilized to delineate collagen IV NC1 sulfilimine crosslink formation with SDS-PAGE and Coomassie blue staining membrane was isolated, washed extensively and resuspended in 1×PBS. Azide (0-10 mM) and 1 mM H2O2 were added and allowed to react for 1 h at 37° C. The matrix was pelleted, washed extensively with 1×PBS and solubilized with 1×PBS plus 2% (w/v) SDS. Solubilized proteins were reacted with 100 μM Tris[(1-benzyl-1H-1,2,3-triazol-4-yl)methyl]amine (Anaspec), 1 mM Tris(2-carboxyethyl)phosphine hydrochloride (ThermoFisher Pierce), 1 mM cupric sulfate and 100 μM biotin alkyne (PEG4 carboxamide-propargyl biotin; Life Technologies) for 1 h at 37° C. Click chemistry reactions were quenched with 1 mM 3′-azido-3′-deoxythymidine (Sigma). For avidin-HRP detection, samples were electrophoresed under reducing conditions, transferred to nitrocellulose membranes and probed with streptavidin-HRP according to manufacturer instructions (ThermoFisher Pierce). To isolate biotinylated proteins, the inventors precipitated click reaction products with two volumes of cold acetone to remove reactants, washed them with 70% (v/v) acetone and then resolubilized them in 1×PBS plus 2% SDS.
# collagen IV NC1 hexamer = target: T2, collagen IV NC1 hexamer (Mus musculus, UniProt P02463+P08122); experiment: Hypohalous acid oxidation of purified uncrosslinked NC1 hexamer; settings: for effect of pretreatment on S═N bond formation by HOBr: NC1 hexamer pretreated with the substance, then treated with HOBr; for crosslinked dimeric subunits (percentage of dimeric subunit): 500 nM NC1 hexamer, 5 μM hypohalous acid, 30 min at 37° C. (FIG. 4A)
# T2 sequence (P02463 1445-1669 limits assumed): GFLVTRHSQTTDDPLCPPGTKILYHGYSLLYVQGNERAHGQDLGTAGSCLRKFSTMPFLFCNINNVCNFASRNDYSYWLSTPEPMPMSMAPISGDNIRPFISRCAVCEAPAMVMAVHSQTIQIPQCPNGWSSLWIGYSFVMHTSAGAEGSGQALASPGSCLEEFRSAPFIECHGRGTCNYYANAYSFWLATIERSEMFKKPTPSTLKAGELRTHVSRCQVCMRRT
# T2 sequence (P08122 1484-1707 limits assumed): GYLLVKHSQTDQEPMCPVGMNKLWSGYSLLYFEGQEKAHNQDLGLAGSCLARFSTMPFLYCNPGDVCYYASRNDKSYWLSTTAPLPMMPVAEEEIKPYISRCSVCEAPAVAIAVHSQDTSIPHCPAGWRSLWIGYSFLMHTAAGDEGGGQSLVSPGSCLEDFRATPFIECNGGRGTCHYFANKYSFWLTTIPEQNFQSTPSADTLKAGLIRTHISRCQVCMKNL
# Description: (FIG. 4A) Five hundred nanomolar collagen IV NC1 hexamer (3 μM potential crosslinks) was incubated alone (control) or with 5 μM hypochlorous (HOCl) or hypobromous acid (HOBr) for 30 min at 37° C. […] (FIGS. 4B-D) 16 nM myeloperoxidase (MPO) (FIG. 4B), eosinophil peroxidase (EPO) (FIG. 4C) or lactoperoxidase (LPO) (FIG. 4D) were reacted with 500 nM NC1 hexamer (3 μM potential crosslinks) for varying time points in 1×PBS with or without 10 μM H2O2. In the case of LPO, all reactions proceeded for 60 min. Collagen IV-sulfilimine crosslink content was visualized after SDS-PAGE and Coomassie blue staining of the reactions. Each gel is representative of three independent experiments. PHG, phloroglucinol; MW, molecular weight.
# FIGS. 9A-D. Chemical mechanism of sulfilimine formation within the NC1 hexamer. (FIG. 9A) Purified uncrosslinked NC1 hexamer (5 μM) was reacted for 5 minutes at 37° with the indicated amounts of hypohalous acids and analyzed by SDS-PAGE. […] Values represent mean±S.D. (n=3). (FIG. 7B) Uncrosslinked NC1 hexamer (1.3 μM) in Br-Free PBS was preoxidzed with indicated amounts of HOCl for 1 min at 37 C, followed by post-oxidation with the addition of 8 mol eq. HOBr (or HOCl as a control) which was reacted for an additional minute at 37° C., then quenched with 20 mM methionine. Gel is representative of two experiments (FIG. 9C) XIC analysis of the residual monomeric NC1 subunit following HOCl oxidation (10 mol eq) compared to input NC1 monomer after SDS-PAGE and in-gel trypsin digestion. ^16O addition to the methionine residues was confirmed by MS3 analysis. (FIG. 9D) Met93 oxidation pathway consistent with experimental data and the resultant enthalphic landscape for S═N bond formation within the NC1 hexamer.
# (FIG. 15) Fifty micromolar of hypohalous oxidants were added to 5 μM uncrosslinked NC1 domains, and reacted for 5 minutes at 37° C. before quenching by adding L-methionine to 1 mM final concentration. […] Experiments were run in triplicate and analyzed by 12% non-reducing SDS-PAGE and ImageJ.
# The efficiency of HOBr as a reagent was compared to other hypohalous acids, during a 5′ reaction with uncrosslinked hexamers containing 5 μM NC1 domains.
# The inventors therefore tested the molar efficiency of oxidation of purified uncrosslinked NC1 hexamer with HOCl and HOBr (FIG. 9A). […] To test this, they pretreated uncrosslinked NC1 hexamer with varying concentrations of HOCl, then treated with HOBr. […] As an independent approach to testing the dead-end sulfoxide hypothesis, the inventors pretreated NC1 hexamer with escalating levels of H2O2, a reagent known to generate methionine sulfoxides (Liang et al., 2012). […] They next decided to directly visualize the peptide containing Met93, the S donor of the S═N bond, within the residual monomeric NC1 fraction after HOCl oxidation and compare its oxidation status to untreated NC1 hexamer.
# PFHR-9 cells = experiment: Collagen IV sulfilimine crosslink formation in PFHR-9 cell culture (NC1 hexamer, SDS-PAGE); assay type: cell-based, mouse; settings: for effect on NC1 dimer / crosslink formation in culture: PFHR9 matrix grown 5-8 days with potassium halide salts, SDS-PAGE; for IC50: halide/pseudohalide screen in cell culture, read-out: IC50, inhibition of S═N formation
# [1] = matrix grown 5-8 days with potassium salts, 95% CI
structure (smiles),measurement,setting,value
"[Cl-].[K+] [Br-free KCl, KCl]",dimer formation with bromide-free chloride as halide source,"peroxidasin; 100 mM Br-free chloride salt, 1 mM H2O2, isolated PFHR-9 matrix",did not support dimer formation to levels comparable with untreated controls
"[F-].[K+] [Fluoride, potassium fluoride]",S═N bond formation in isolated matrix,peroxidasin,inert
"OO [H2O2, hydrogen peroxide]",sulfilimine bond formation in isolated basement membrane,"peroxidasin; inhibitor removed, with versus without H2O2 (FIG. 2C)",Sulfilimine bonds formed rapidly
same,effect of pretreatment on S═N bond formation by HOBr,collagen IV NC1 hexamer,dose-dependent decrease in the crosslinking efficacy of HOBr
"OCl [HOCl, hypochlorous acid]",crosslinked dimeric subunits (percentage of dimeric subunit),collagen IV NC1 hexamer,increased significantly
same,crosslinked dimeric subunits (percentage of dimeric subunit),collagen IV NC1 hexamer; listed as hypochlorous acid,yielded crosslinked dimeric subunits
same,concentration required to drive S═N bond formation,"collagen IV NC1 hexamer; 5 μM NC1 hexamer, 5 minutes at 37° (FIG. 9A)",50 µM
same,effect of pretreatment on S═N bond formation by HOBr,collagen IV NC1 hexamer,decreased with pretreatment of increasing levels of HOCl
same,S═N bond formation as share of total Met93 oxidized,"collagen IV NC1 hexamer; oxidation event 1 (OE1), S—Cl or S—Br halosulfonium intermediate",19%
"[Br-].[K+] [KBr, potassium bromide]",effect on NC1 dimer / crosslink formation in culture,PFHR-9 cells,dimer enhancement
same,EC50,"PFHR-9 cells; halide screen in cell culture, matrix grown 5-8 days with potassium salts, 95% CI, read-out: EC50, enhancement of S═N formation",75 µM
"N#C[S-].[K+] [KSCN, potassium thiocyanate]",effect on NC1 dimer / crosslink formation in culture,PFHR-9 cells,dimer inhibition
same,effect on NC1 dimer / crosslink formation in culture,PFHR-9 cells; listed as SCN^−,potent inhibitor of peroxidasin-mediated crosslink formation
same,IC50,PFHR-9 cells; [1],17 µM
[I-].[K+] [potassium iodide],effect on NC1 dimer / crosslink formation in culture,PFHR-9 cells,dimer inhibition
same,IC50,PFHR-9 cells; [1],84 µM
same,formation of collagen IV crosslinks,"PFHR-9 cells; inhibitor present during cellular deposition of basement membrane, FIG. 2A: PHG 50 μM, MMI 1 mM, KI 10 mM, 3-AT 10 mM, BAPN 500 μM, putrescine 2.5 mM",inhibited collagen IV crosslink formation
same,S═N bond formation in isolated matrix,peroxidasin,demonstrated no S═N formation
same,S═N bond formation in isolated matrix,peroxidasin; listed as KI,did not faciliate crosslinking
